Key:
SARS-CoV 3CLpro = SARS-CoV 3CLpro (Severe acute respiratory syndrome coronavirus, UniProt P0C6X7); test: biochemical
MERS-CoV 3CLpro = MERS-CoV 3CLpro (Middle East respiratory syndrome-related coronavirus, UniProt K9N7C7); test: biochemical
HCoV-229E 3CLpro = HCoV-229E 3CLpro (Human coronavirus 229E, UniProt P0C6X1); test: HCoV-229E 3CLpro inhibition assay (FRET); type: biochemical
SARS-CoV-2 3CLpro = SARS-CoV-2 3CLpro (Severe acute respiratory syndrome coronavirus 2, UniProt P0DTD1); test: biochemical

Chain of MERS-CoV 3CLpro (K9N7C7 3248-3553): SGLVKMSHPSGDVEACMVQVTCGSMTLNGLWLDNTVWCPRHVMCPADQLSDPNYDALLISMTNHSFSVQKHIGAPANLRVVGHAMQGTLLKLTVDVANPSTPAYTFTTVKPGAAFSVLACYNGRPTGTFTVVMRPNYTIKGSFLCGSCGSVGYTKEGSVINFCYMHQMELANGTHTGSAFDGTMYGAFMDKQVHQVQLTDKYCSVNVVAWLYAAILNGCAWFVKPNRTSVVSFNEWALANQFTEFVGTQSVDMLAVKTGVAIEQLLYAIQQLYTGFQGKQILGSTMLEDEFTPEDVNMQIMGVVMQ
Chain of HCoV-229E 3CLpro (P0C6X1 2966-3267): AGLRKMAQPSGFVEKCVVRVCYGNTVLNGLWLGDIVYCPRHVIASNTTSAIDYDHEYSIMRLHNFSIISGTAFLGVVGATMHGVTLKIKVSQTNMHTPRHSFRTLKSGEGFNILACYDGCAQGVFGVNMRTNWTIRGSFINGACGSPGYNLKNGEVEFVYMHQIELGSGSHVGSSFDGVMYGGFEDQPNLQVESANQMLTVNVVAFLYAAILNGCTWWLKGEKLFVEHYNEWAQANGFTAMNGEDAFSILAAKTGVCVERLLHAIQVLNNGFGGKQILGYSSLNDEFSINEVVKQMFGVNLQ

Structure (SMILES) | IC50 (SARS-CoV 3CLpro) | IC50 (MERS-CoV 3CLpro) | IC50 (HCoV-229E 3CLpro) | IC50 (SARS-CoV-2 3CLpro)
CC[C@H](C)[C@H](NC(=O)C1(F)CC1)C(=O)N1C[C@H]2[C@@H]([C@H]1C(=O)NN(C[C@@H]1CCNC1=O)C(=O)[C@@H](F)Cl)C2(C)C [Example 106, N-[(1S,2S)-1-[(1R,2S,5S)-2-[[[(2S)-2-chloro-2-fluoro-acetyl]-[[(3S)-2-oxopyrrolidin-3-yl]methyl]amino]carbamoyl]-6,6-dimethyl-3-azabicyclo[3.1.0]hexane-3-carbonyl]-2-methyl-butyl]-1-fluoro-cyclopropanecarboxamide] | 57 nM | 179 nM | 66 nM | 33 nM
CC1(C)[C@@H]2[C@@H](C(=O)NN(C[C@@H]3CCNC3=O)C(=O)[C@H](F)Cl)N(C(=O)c3cc(F)cc(C(F)(F)F)c3)C[C@@H]21 [Example 179, (1R,2S,5S)—N′-[(2R)-2-chloro-2-fluoro-acetyl]-3-[3-fluoro-5-(trifluoromethyl)benzoyl]-6,6-dimethyl-N′—[[(3S)-2-oxopyrrolidin-3-yl]methyl]-3-azabicyclo[3.1.0]hexane-2-carbohydrazide] | 222 nM | 315 nM | 93 nM | 201 nM
CC1(C)[C@@H]2[C@@H](C(=O)NN(C[C@@H]3CCNC3=O)C(=O)[C@H](F)Cl)N(C(=O)[C@H](Cc3ccncc3)NC(=O)C(F)(F)F)C[C@@H]21 [Example 67, N-[(1S)-2-[(1R,2S,5S)-2-[[[(2R)-2-chloro-2-fluoro-acetyl]-[[(3S)-2-oxopyrrolidin-3-yl]methyl]amino]carbamoyl]-6,6-dimethyl-3-azabicyclo[3.1.0]hexan-3-yl]-2-oxo-1-(4-pyridylmethyl)ethyl]-2,2,2-trifluoro-acetamide] | 14 nM | 84 nM | 28 nM | 10 nM
CC[C@H](C)[C@H](NC(=O)[C@@H](F)Cl)C(=O)N1CC(C)(C)C[C@H]1C(=O)NN(C[C@@H]1CCNC1=O)C(=O)[C@@H](F)Cl [Example 187, (2S)-2-chloro-N-[(1S,2S)-1-[(2S)-2-[[[(2S)-2-chloro-2-fluoro-acetyl]-[[(3S)-2-oxopyrrolidin-3-yl]methyl]amino]carbamoyl]-4,4-dimethyl-pyrrolidine-1-carbonyl]-2-methyl-butyl]-2-fluoro-acetamide] | 43 nM | 167 nM | 36 nM | 24 nM
CC(C)(C)[C@H](NC(=O)C1(F)CC1)C(=O)N1C[C@@H]2CCC[C@@H]2[C@H]1C(=O)NN(C[C@@H]1CCNC1=O)C(=O)[C@@H](F)Cl [Example 103, N-[(1S)-1-[(3S,3aS,6aR)-3-[[[(2S)-2-chloro-2-fluoro-acetyl]-[[(3S)-2-oxopyrrolidin-3-yl]methyl]amino]carbamoyl]-3,3a,4,5,6,6a-hexahydro-1H-cyclopenta[c]pyrrole-2-carbonyl]-2,2-dimethyl-propyl]-1-fluoro-cyclopropanecarboxamide] | 25 nM | 372 nM | 167 nM | 13 nM
CC(C)(C)[C@H](NC(=O)C1(F)CCC1)C(=O)N1C[C@@H]2CCC[C@@H]2[C@H]1C(=O)NN(C[C@@H]1CCNC1=O)C(=O)[C@H](F)Cl [Example 97, N-[(1S)-1-[(3S,3aS,6aR)-3-[[[(2R)-2-chloro-2-fluoro-acetyl]-[[(3S)-2-oxopyrrolidin-3-yl]methyl]amino]carbamoyl]-3,3a,4,5,6,6a-hexahydro-1H-cyclopenta[c]pyrrole-2-carbonyl]-2,2-dimethyl-propyl]-1-fluoro-cyclobutanecarboxamide] | 13 nM | 208 nM | 74 nM | 11 nM
CCC(CC)[C@H](NC(=O)C1CC1)C(=O)N1C[C@@H]2CCC[C@@H]2[C@H]1C(=O)NN(C[C@@H]1CCCNC1=O)C(=O)[C@H](F)Cl [Example 171a, N-[(1S)-1-[(3S,3aS,6aR)-3-[[[(2R)-2-chloro-2-fluoro-acetyl]-[[(3S)-2-oxo-3-piperidyl]methyl]amino]carbamoyl]-3,3a,4,5,6,6a-hexahydro-1H-cyclopenta[c]pyrrole-2-carbonyl]-2-ethyl-butyl]cyclopropanecarboxamide] | 17 nM | 130 nM | 94 nM | 8 nM
CC[C@H](C)[C@H](NC(=O)c1ccccc1)C(=O)N1C[C@@H]2CCC[C@@H]2[C@H]1C(=O)NN(C[C@@H]1CCNC1=O)C(=O)[C@H](F)Cl [Example 80, N-[(1S,2S)-1-[(3S,3aS,6aR)-3-[[[(2R)-2-chloro-2-fluoro-acetyl]-[[(3S)-2-oxopyrrolidin-3-yl]methyl]amino]carbamoyl]-3,3a,4,5,6,6a-hexahydro-1H-cyclopenta[c]pyrrole-2-carbonyl]-2-methyl-butyl]benzamide] | 11 nM | 58 nM | 20 nM | 10 nM
CCCC(=O)N[C@H](C(=O)N1C[C@@H]2CCC[C@@H]2[C@H]1C(=O)NN(C[C@@H]1CCNC1=O)C(=O)[C@H](F)Cl)[C@@H](C)CC [Example 46, N-[(1S,2S)-1-[(3S,3aS,6aR)-3-[[[(2R)-2-chloro-2-fluoro-acetyl]-[[(3S)-2-oxopyrrolidin-3-yl]methyl]amino]carbamoyl]-3,3a,4,5,6,6a-hexahydro-1H-cyclopenta[c]pyrrole-2-carbonyl]-2-methyl-butyl]butanamide] | 29 nM | 152 nM | 49 nM | 8 nM
CCC(CC)[C@H](NC(=O)C1(F)CC1)C(=O)N1C[C@H]2[C@@H]([C@H]1C(=O)NN(C[C@@H]1CCNC1=O)C(=O)[C@H](F)Cl)C2(C)C [Example 132, N-[(1S)-1-[(1R,2S,5S)-2-[[[(2R)-2-chloro-2-fluoro-acetyl]-[[(3S)-2-oxopyrrolidin-3-yl]methyl]amino]carbamoyl]-6,6-dimethyl-3-azabicyclo[3.1.0]hexane-3-carbonyl]-2-ethyl-butyl]-1-fluoro-cyclopropanecarboxamide] | 14 nM | 106 nM | 25 nM | 10 nM
CC[C@H](C)[C@H](NC(=O)C1CC1)C(=O)N1C[C@@H]2CCC[C@@H]2[C@H]1C(=O)NN(C[C@@H]1CCNC1=O)C(=O)[C@H](F)Cl [Example 37, N-[(1S,2S)-1-[(3S,3aS,6aR)-3-[[[(2R)-2-chloro-2-fluoro-acetyl]-[[(3S)-2-oxopyrrolidin-3-yl]methyl]amino]carbamoyl]-3,3a,4,5,6,6a-hexahydro-1H-cyclopenta[c]pyrrole-2-carbonyl]-2-methyl-butyl]cyclopropanecarboxamide] | 11 nM | 76 nM | 29 nM | 9 nM
CCC[C@H](NC(=O)C(F)(F)F)C(=O)N1C[C@@H]2CCC[C@@H]2[C@H]1C(=O)NN(C[C@@H]1CCNC1=O)C(=O)[C@H](F)Cl [Example 78, N-[(1S)-1-[(3S,3aS,6aR)-3-[[[(2R)-2-chloro-2-fluoro-acetyl]-[[(3S)-2-oxopyrrolidin-3-yl]methyl]amino]carbamoyl]-3,3a,4,5,6,6a-hexahydro-1H-cyclopenta[c]pyrrole-2-carbonyl]butyl]-2,2,2-trifluoro-acetamide] | 10 nM | 57 nM | 23 nM | 9 nM
CCC(C)(C)[C@H](NC(=O)C1(F)CC1)C(=O)N1C[C@H]2[C@@H]([C@H]1C(=O)NN(C[C@@H]1CCNC1=O)C(=O)[C@@H](F)Cl)C2(C)C [Example 145, N-[(1S)-1-[(1R,2S,5S)-2-[[[(2S)-2-chloro-2-fluoro-acetyl]-[[(3S)-2-oxopyrrolidin-3-yl]methyl]amino]carbamoyl]-6,6-dimethyl-3-azabicyclo[3.1.0]hexane-3-carbonyl]-2,2-dimethyl-butyl]-1-fluoro-cyclopropanecarboxamide] | 27 nM | 152 nM | 77 nM | 18 nM
CC[C@H](C)[C@H](NC(=O)C(F)F)C(=O)N1C[C@H]2[C@@H]([C@H]1C(=O)NN(C[C@@H]1CCNC1=O)C(=O)[C@H](F)Cl)C2(C)C [Example 51, N-[(1S,2S)-1-[(1R,2S,5S)-2-[[[(2R)-2-chloro-2-fluoro-acetyl]-[[(3S)-2-oxopyrrolidin-3-yl]methyl]amino]carbamoyl]-6,6-dimethyl-3-azabicyclo[3.1.0]hexane-3-carbonyl]-2-methyl-butyl]-2,2-difluoro-acetamide] | 10 nM | 59 nM | 21 nM | 7 nM
CC[C@H](C)[C@H](NC(=O)C1CC1(F)F)C(=O)N1C[C@H]2[C@@H]([C@H]1C(=O)NN(C[C@@H]1CCNC1=O)C(=O)[C@H](F)Cl)C2(C)C (mixture of isomers) [Example 53, Rac-2,2-difluoro-N-[(1S,2S)-2-methyl-1-[(1R,2S,5S)-6,6-dimethyl-2-[[[(2R)-2-chloro-2-fluoro-acetyl]-[[(3S)-2-oxopyrrolidin-3-yl]methyl]amino]carbamoyl]-3-azabicyclo[3.1.0]hexane-3-carbonyl]butyl]cyclopropanecarboxamide] | 13 nM | 87 nM | 32 nM | 8 nM
CC(C)(C)[C@H](Nc1ccccn1)C(=O)N1C[C@@H]2CCC[C@@H]2[C@H]1C(=O)NN(C[C@@H]1CCNC1=O)C(=O)[C@H](F)Cl [Example 184] | 41 nM | 275 nM | 86 nM | 16 nM
CC(C)(C)[C@H](NC(=O)C(F)(F)F)C(=O)N1C[C@H]2[C@@H]([C@H]1C(=O)NN(C[C@H]1CCCNC1=O)C(=O)[C@H](F)Cl)C2(C)C (single isomer, unassigned) [Example 163a] | 18 nM | 226 nM | 52 nM | 9 nM

From patent US20250059171A1 (Hoffmann-La Roche Inc., priority 2021, published 2025)
